Measured values from ChEMBL document CHEMBL3714738, “Novel indole, indazole and benzimidazole arylamides as p2x3 and/or p2x2/3 antagonists” (2012).

How the values were obtained:
[1] = molecular target: T1, P2X2/P2X3 heterotrimeric receptor (Homo sapiens, UniProt P56373+Q9UBL9); experiment: Antagonist activity against human P2X2/3 receptor expressed in CHOK1 cells assessed as inhibition of alpha,beta-meATP-induced calcium response incubated for 20 mins by Fluo-3AM dye based FLIPR assay; format: functional, cell-based, CHO-K1
T1 sequence (Q9UBL9 whole entry): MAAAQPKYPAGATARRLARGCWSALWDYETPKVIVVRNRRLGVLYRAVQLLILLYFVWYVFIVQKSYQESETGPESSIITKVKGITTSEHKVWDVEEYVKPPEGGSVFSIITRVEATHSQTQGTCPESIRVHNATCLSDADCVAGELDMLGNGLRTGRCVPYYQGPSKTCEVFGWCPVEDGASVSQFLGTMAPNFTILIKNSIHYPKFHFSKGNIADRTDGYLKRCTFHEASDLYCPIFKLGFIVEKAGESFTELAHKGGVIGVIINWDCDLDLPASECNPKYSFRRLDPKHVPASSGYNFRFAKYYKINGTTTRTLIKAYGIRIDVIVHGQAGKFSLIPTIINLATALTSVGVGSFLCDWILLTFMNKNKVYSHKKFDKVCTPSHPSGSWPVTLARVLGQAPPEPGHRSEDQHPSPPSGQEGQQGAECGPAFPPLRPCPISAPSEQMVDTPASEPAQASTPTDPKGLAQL
T1 sequence (P56373 whole entry): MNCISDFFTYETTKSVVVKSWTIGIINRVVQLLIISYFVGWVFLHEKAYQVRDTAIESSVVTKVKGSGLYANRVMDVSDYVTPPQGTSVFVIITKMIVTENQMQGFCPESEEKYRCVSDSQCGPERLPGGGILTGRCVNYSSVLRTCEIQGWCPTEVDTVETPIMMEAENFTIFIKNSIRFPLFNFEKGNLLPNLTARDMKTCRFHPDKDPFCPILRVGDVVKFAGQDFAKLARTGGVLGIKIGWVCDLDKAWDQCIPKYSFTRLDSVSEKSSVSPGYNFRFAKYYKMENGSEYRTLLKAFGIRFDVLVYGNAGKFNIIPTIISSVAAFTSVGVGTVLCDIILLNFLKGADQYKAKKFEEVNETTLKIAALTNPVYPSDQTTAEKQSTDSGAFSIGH

[2] = molecular target: T2, P2X purinoceptor 3 (Rattus norvegicus, UniProt P49654); experiment: Antagonist activity against rat P2X3 receptor expressed in CHOK1 cells assessed as inhibition of alpha,beta-meATP-induced calcium response incubated for 20 mins by Fluo-3AM dye based FLIPR assay; format: functional, cell-based, CHO-K1
T2 sequence (P49654 whole entry): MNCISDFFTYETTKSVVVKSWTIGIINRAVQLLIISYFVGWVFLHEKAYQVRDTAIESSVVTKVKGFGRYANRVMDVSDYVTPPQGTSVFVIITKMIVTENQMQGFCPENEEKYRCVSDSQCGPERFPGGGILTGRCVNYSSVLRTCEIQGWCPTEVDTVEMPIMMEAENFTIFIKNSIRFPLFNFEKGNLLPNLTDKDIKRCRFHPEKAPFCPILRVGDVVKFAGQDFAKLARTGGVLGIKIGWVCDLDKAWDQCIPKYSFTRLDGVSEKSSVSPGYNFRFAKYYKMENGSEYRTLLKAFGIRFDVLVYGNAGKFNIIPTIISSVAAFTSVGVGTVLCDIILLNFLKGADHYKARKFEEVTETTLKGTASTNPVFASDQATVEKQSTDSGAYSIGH

SMILES | Ki [1] [nM] | Ki [2] [nM]
Cc1ccc(-c2cc(C(=O)N[C@@H](C)CO)cc3c2ccn3-c2ccccc2)nc1 | 2880 | 102
Cc1ccc(-c2cc(C(=O)NCc3cnc(C)cn3)cc3c2ccn3-c2ccccc2)nc1 | 457 | 18.6
Cc1ccc(-c2cc(C(=O)N[C@@H](C)CO)cc3c2cnn3CC(C)C)nc1 | 7240 | 288
